The subject of series [1] is E. coli strain DH5α. Put plainly: Minimal inhibitory concentration (MIC), broth microdilution. The format is cell-based. The settings on record: Escherichia coli, 2×YT broth, 37° C., 18 hours, lowest concentration that inhibited visible growth. The protocol: (§1) Minimal inhibitory concentrations (MIC) of inhibitors against E. colistrain DH5α (Genotype; F-φ80d/acZΔM15Δ(lacZYA-argF)U169 deoR recA1 endA1 hsdR17(rk^−,mk^+)phoA supE44λ^−thi-1 gyrA96 re/A1) obtained from GibcoBRL Life Technologies, or Staphylococcus capitis (American Type Culture Collection number 35661) were determined as follows. Stock solutions of each test compound were prepared by dissolution of the compound in dimethylsulfoxide at 10 mM. For the determination of the minimal inhibitory concentration, two fold serial dilutions were prepared in 2×YT broth (typtone-16 g/1, yeast extract 10 g/1, sodium chloride 5 g/1 obtained from BIO 101 Inc, 1070 Joshua Way, Vista, Calif. 92083, USA) to yield 0.05 ml compound-containing medium per well. Inocula were prepared from cultures grown overnight in 2×YT broth at 37° C. Cell densities were adjusted to absorbance at 660 nm (A660)=0.1; the optical density-standardized preparations were diluted 1:1000 in 2×YT broth; and each well inoculated with 0.05 ml of the diluted bacteria. Microtiter plates were incubated at 37° C. for 18 hours in a humidified incubator. The MIC (μM) was recorded as the lowest drug concentration that inhibited visible growth.
In general terms: Dilution methods test growth across graded concentrations, often in twofold steps.

Series [2] deals with Staphylococcus capitis (American Type Culture Collection number 35661). The series is described as above. Type of series: cell-based. The note with it: ATCC35661, S. capitis ATCC 35661, 2×YT broth, 37° C., 18 hours, lowest concentration that inhibited visible growth. The protocol:
as §1

The values below come from patent US6476067B1, “N-formyl hydroxylamine derivatives as antibacterial agents” (British Biotech, priority 1998, dated 2002).

In brackets after ≈: the same amount, converted by molar mass.

By MIC is commonly meant the smallest concentration in the dilution series that meets the test's criterion for growth inhibition. Read a high MIC as weaker potency. As a reminder, the melting point is the temperature of the solid-liquid transition.

With `CCCC[C@H](CN(O)C=O)C(=O)N[C@H](C(=O)OC1CCCC1)C(C)(C)C` [Example 3, 2S{-2R-[(Formyl-hydroxy-amino)-methyl]-hexanoylamino}-3,3-dimethyl Butyric Acid Cyclopentyl Ester], the figures for the MIC in series [1] and in series [2] were 50 µM (≈ 18.5 µg/mL) and 12.5 µM (≈ 4.63 µg/mL), respectively.

Consider `O=CN(O)CC(Cc1ccccc1)C(=O)N[C@@H](Cc1ccccc1)C(=O)OC1CCCC1` (stereo partly drawn) [Example 1, 2S-[2-(R,S)-Benzyl-3-(formyl-hydroxy-amino)-propionylamino]-3-phenyl-propionic acid cyclopentyl ester], for which the values for the minimal inhibitory concentration (MIC) in series [1] and in series [2] were 500 µM (≈ 219 µg/mL) and 12.5 µM (≈ 5.48 µg/mL), respectively.

Consider `CC(C)C[C@@H](C(=O)N[C@@H](Cc1ccccc1)C(=O)OC1CCCC1)C(C)N(O)C=O` (stereo partly drawn) [Example 2, 2S-{2R-[1-(R,S)-(Formyl-hydroxy-amino)-ethyl]-4-methyl-pentanoylamino}-3-phenylpropionic Acid Cyclopentyl Ester], for which the MIC is greater than 200 µM in series [1] and 200 to 300 µM (≈ 83.7 to 126 µg/mL) in series [2].

For `CCCC[C@H](CN(O)C=O)C(=O)N[C@H](C(=O)OC(C)(C)C)C(C)(C)C` [Example 11, 2S-{2R-[(Formyl-hydroxy-amino)-methyl]-hexanoylamino}-3,3-dimethyl-butyric Acid Tert-butyl Ester], the melting point fell in the range of 76.1 to 78.2 °C.

With `CCCC[C@H](CN(O)C=O)C(=O)N[C@@H](Cc1ccccc1)C(=O)OC1CCCC1` [Example 4, 2S-{2R-[(Formyl-hydroxy-amino)-methyl]-hexanoylamino}-3-phenyl-propionic Acid Cyclopentyl Ester], the MIC in series [1] is 200 to 300 µM (≈ 80.9 to 121 µg/mL); in series [2], 25 µM (≈ 10.1 µg/mL).

For `CCCCC(CN(O)C=O)C(=O)N[C@H](C(=O)OC1CCCC1)C(C)C` (stereo partly drawn) [Example 6, 2S-{2R-[(Formyl-hydroxy-amino)methyl]-hexanoylamino}-3-methyl Butyric Acid Cyclopentyl Ester], the MIC in series [1] came out at 100 µM (≈ 35.6 µg/mL); in series [2], 50 µM (≈ 17.8 µg/mL).

Take `CCCC[C@H](CN(O)C=O)C(=O)N[C@H](C(=O)OC)C(C)(C)C` [Example 5, 2S-{2R-[(Formyl-hydroxy-amino)methyl]-hexanoylamino}-3,3-dimethyl Butyric Acid Methyl Ester]: the melting point was 63.5 to 64.5 °C. The compound further displayed an MIC in series [1] of 50 µM (≈ 15.8 µg/mL). In series [2], this compound yielded an MIC of 200 µM (≈ 63.3 µg/mL).

Compound `O=CN(O)C[C@@H](CC1CCCC1)C(=O)N[C@@H](Cc1ccccc1)C(=O)OC1CCCC1` [Example 16, 2S-[2R-Cyclopentylmethyl-3-(formyl-hydroxy-amino)-propionylamino]-3-phenyl-propionic Acid Cyclopentyl Ester] displayed a melting point of 76.8 to 78.5 °C.
